Measured values: patent publication US4755509A, “Heterocyclic aldose reductase inhibitors and methods of using them” (Carbipem, priority 1984, dated 1988)
Counter-ions that a name gives are not always drawn.

biological target: T1, aldose reductase (Rattus norvegicus, UniProt P07943); test: in vitro inhibition of aldose reductase from rat lens homogenate (DL-glyceraldehyde substrate, NADPH, spectrophotometry at 340 nm); format: biochemical; conditions: concentration 10^-4 mol/liter; read-out: Inhibition relative to the control activity, %
T1 construct: rat lens homogenate used as a source of enzyme; from tissue; host or cells: rat lens homogenate
Experimental: The inhibitory activity on aldose reductase is evaluated in vitro starting from a rat lens homogenate used as a source of enzyme. The substrate used is DL-glyceraldehyde, which is converted by aldose reductase to glycerol in the presence of NADPH (*). This reaction is followed by spectrophotometry at 340 nm in the absence and in the presence of the inhibitors to be tested, the variation in optical density being proportional to the oxidation of the reduced coenzyme.
The results are shown in Table I below and represent, for different examples, the percentage inhibition of the enzymatic activity, relative to the control activity, as a function of the different concentrations (mol.l^-1) used.

inhibition at 100 µM [%]	SMILES
95	O=C(O)CN1C(=O)CSc2ncccc21 [Example 110, Pyrido[2,3-b]thiazin-2(3H)-one-1-acetic acid]
96	O=C(O)CN1C(=O)CSc2nc(Cl)ccc21 [Example 111, 6-Chloropyrido[2,3-b]thiazin-2(3H)-one-1-acetic acid]
95	O=C(O)CN1C(=O)CNc2ncccc21 [Example 114, Pyrido[2,3-b][1,4]pyrazin-2(3H)-one-1-acetic acid hydrochloride]
90	O=C(O)CN1C(=O)CSc2ccc(C(F)(F)F)cc21 [Example 115, 6-Trifluoromethyl-2H-1,4-benzothiazin-3-one-4-acetic acid]
100	O=C(O)CN1C(=O)CSc2cc(F)ccc21 [Example 116, 7-Fluoro-2H-1,4-benzothiazin-3-one-4-acetic acid]
100	O=C(O)CN1C(=S)CSc2cc(F)ccc21 [Example 117, 7-Fluoro-2H-1,4-benzothiazine-3-thione-4-acetic acid]
98	O=C(O)CN1C(=O)CSc2ccc(F)cc21 [Example 118, 6-Fluoro-2H-1,4-benzothiazin-3-one-4-acetic acid]
100	O=C(O)CN1C(=S)CSc2ccc(F)cc21 [Example 119, 6-Fluoro-2H-1,4-benzothiazine-3-thione-4-acetic acid]
97	O=C(O)CN1C(=O)CSc2cc(Cl)ccc21 [Example 121, 7-Chloro-2H-1,4-benzothiazin-3-one-4-acetic acid]
97	O=C(O)CN1C(=O)CSc2cc(Cl)c(C(F)(F)F)cc21 [Example 123, 6-Trifluoromethyl-7-chloro-2H-1,4-benzothiazin-3-one-4-acetic acid]
97	O=C(O)CN1C(=O)CSc2ccccc21 [Example 124, 2H-1,4-Benzothiazin-3-one-4-acetic acid]
99	CC1Sc2ccccc2N(CC(=O)O)C1=O (stereo not shown) [Example 125, 2-Methyl-2H-1,4-benzothiazin-3-one-4-acetic acid]
96	CC1(c2ccccn2)Sc2ccccc2N(CC(=O)O)C1=O (stereo not shown) [Example 151, 2-Methyl-2-(pyridin-2'-yl)-2H-1,4-benzothiazin-3-one-4-acetic acid]
100	O=C(O)CN1C(=S)COc2ccc(F)cc21 [Example 152, 6-Fluoro-2H-1,4-benzoxazine-3-thione-4-acetic acid]

same assay, conditions: concentration 10^-5 mol/liter; read-out: Inhibition relative to the control activity, %

inhibition at 10 µM [%]	SMILES
82	O=C(O)CN1C(=O)CSc2ncccc21 [Example 110, Pyrido[2,3-b]thiazin-2(3H)-one-1-acetic acid]
80	O=C(O)CN1C(=O)CSc2nc(Cl)ccc21 [Example 111, 6-Chloropyrido[2,3-b]thiazin-2(3H)-one-1-acetic acid]
86	O=C(O)CN1C(=O)CNc2ncccc21 [Example 114, Pyrido[2,3-b][1,4]pyrazin-2(3H)-one-1-acetic acid hydrochloride]
57	O=C(O)CN1C(=O)CSc2ccc(C(F)(F)F)cc21 [Example 115, 6-Trifluoromethyl-2H-1,4-benzothiazin-3-one-4-acetic acid]
95	O=C(O)CN1C(=O)CSc2cc(F)ccc21 [Example 116, 7-Fluoro-2H-1,4-benzothiazin-3-one-4-acetic acid]
100	O=C(O)CN1C(=S)CSc2cc(F)ccc21 [Example 117, 7-Fluoro-2H-1,4-benzothiazine-3-thione-4-acetic acid]
91	O=C(O)CN1C(=O)CSc2ccc(F)cc21 [Example 118, 6-Fluoro-2H-1,4-benzothiazin-3-one-4-acetic acid]
98	O=C(O)CN1C(=S)CSc2ccc(F)cc21 [Example 119, 6-Fluoro-2H-1,4-benzothiazine-3-thione-4-acetic acid]
92	O=C(O)CN1C(=O)CSc2cc(Cl)ccc21 [Example 121, 7-Chloro-2H-1,4-benzothiazin-3-one-4-acetic acid]
81	O=C(O)CN1C(=O)CSc2cc(Cl)c(C(F)(F)F)cc21 [Example 123, 6-Trifluoromethyl-7-chloro-2H-1,4-benzothiazin-3-one-4-acetic acid]
86	O=C(O)CN1C(=O)CSc2ccccc21 [Example 124, 2H-1,4-Benzothiazin-3-one-4-acetic acid]
91	CC1Sc2ccccc2N(CC(=O)O)C1=O (stereo not shown) [Example 125, 2-Methyl-2H-1,4-benzothiazin-3-one-4-acetic acid]
98	O=C(O)CN1C(=S)CSc2cc(Cl)ccc21 [Example 127, 7-Chloro-2H-1,4-benzothiazine-3-thione-4-acetic acid]
74	O=C(O)CN1C(=S)CSc2cc(Cl)c(C(F)(F)F)cc21 [Example 129, 6-Trifluoromethyl-7-chloro-2H-1,4-benzothiazine-3-thione-4-acetic acid]
99	O=C(O)CN1C(=S)C(c2ccccc2)Sc2ccccc21 (stereo not shown) [Example 130, 2-Phenyl-2H-1,4-benzothiazine-3-thione-4-acetic acid]
95	CC1Sc2ccccc2N(CC(=O)O)C1=S (stereo not shown) [Example 132, 2-Methyl-2H-1,4-benzothiazine-3-thione-4-acetic acid]
98	O=C(O)CN1C(=S)CSc2ccccc21 [Example 133, 2H-1,4-Benzothiazine-3-thione-4-acetic acid]
95	CC1Sc2ccc(F)cc2N(CC(=O)O)C1=O (stereo not shown) [Example 136, 6-Fluoro-2-methyl-2H-1,4-benzothiazin-3-one-4-acetic acid]
94	CC1Sc2ccc(F)cc2N(CC(=O)O)C1=S (stereo not shown) [Example 137, 6-Fluoro-2-methyl-2H-1,4-benzothiazine-3-thione-4-acetic acid]
73	CC1(c2ccccn2)Sc2ccccc2N(CC(=O)O)C1=O (stereo not shown) [Example 151, 2-Methyl-2-(pyridin-2'-yl)-2H-1,4-benzothiazin-3-one-4-acetic acid]
99	O=C(O)CN1C(=S)COc2ccc(F)cc21 [Example 152, 6-Fluoro-2H-1,4-benzoxazine-3-thione-4-acetic acid]
94	O=C(O)CN1C(=S)CCc2cc(Cl)ccc21 [Example 154, 6-Chloro-3,4-dihydroquinoline-2-thione-1-acetic acid]

same assay, conditions: concentration 10^-6 mol/liter; read-out: Inhibition relative to the control activity, %

inhibition at 1 µM [%]	SMILES
37	O=C(O)CN1C(=O)CSc2ncccc21 [Example 110, Pyrido[2,3-b]thiazin-2(3H)-one-1-acetic acid]
6	O=C(O)CN1C(=O)CNc2ncccc21 [Example 114, Pyrido[2,3-b][1,4]pyrazin-2(3H)-one-1-acetic acid hydrochloride]
25	O=C(O)CN1C(=O)CSc2cc(F)ccc21 [Example 116, 7-Fluoro-2H-1,4-benzothiazin-3-one-4-acetic acid]
10	O=C(O)CN1C(=O)CSc2ccc(F)cc21 [Example 118, 6-Fluoro-2H-1,4-benzothiazin-3-one-4-acetic acid]

same assay, conditions: concentration 10^-7 mol/liter; read-out: Inhibition relative to the control activity, %

inhibition at 0.1 µM [%]	SMILES
11	O=C(O)CN1C(=O)CSc2ncccc21 [Example 110, Pyrido[2,3-b]thiazin-2(3H)-one-1-acetic acid]
5	O=C(O)CN1C(=O)CSc2nc(Cl)ccc21 [Example 111, 6-Chloropyrido[2,3-b]thiazin-2(3H)-one-1-acetic acid]
3	O=C(O)CN1C(=O)CSc2ccc(C(F)(F)F)cc21 [Example 115, 6-Trifluoromethyl-2H-1,4-benzothiazin-3-one-4-acetic acid]
65	O=C(O)CN1C(=S)CSc2cc(F)ccc21 [Example 117, 7-Fluoro-2H-1,4-benzothiazine-3-thione-4-acetic acid]
67	O=C(O)CN1C(=S)CSc2ccc(F)cc21 [Example 119, 6-Fluoro-2H-1,4-benzothiazine-3-thione-4-acetic acid]
16	O=C(O)CN1C(=O)CSc2cc(Cl)ccc21 [Example 121, 7-Chloro-2H-1,4-benzothiazin-3-one-4-acetic acid]
0	O=C(O)CN1C(=O)CSc2cc(Cl)c(C(F)(F)F)cc21 [Example 123, 6-Trifluoromethyl-7-chloro-2H-1,4-benzothiazin-3-one-4-acetic acid]
10	O=C(O)CN1C(=O)CSc2ccccc21 [Example 124, 2H-1,4-Benzothiazin-3-one-4-acetic acid]
12	CC1Sc2ccccc2N(CC(=O)O)C1=O (stereo not shown) [Example 125, 2-Methyl-2H-1,4-benzothiazin-3-one-4-acetic acid]
93	O=C(O)CN1C(=S)CSc2cc(Cl)ccc21 [Example 127, 7-Chloro-2H-1,4-benzothiazine-3-thione-4-acetic acid]
95	O=C(O)CN1C(=S)C(c2ccccc2)Sc2ccccc21 (stereo not shown) [Example 130, 2-Phenyl-2H-1,4-benzothiazine-3-thione-4-acetic acid]
92	CC1Sc2ccccc2N(CC(=O)O)C1=S (stereo not shown) [Example 132, 2-Methyl-2H-1,4-benzothiazine-3-thione-4-acetic acid]
69	O=C(O)CN1C(=S)CSc2ccccc21 [Example 133, 2H-1,4-Benzothiazine-3-thione-4-acetic acid]
30	CC1Sc2ccc(F)cc2N(CC(=O)O)C1=O (stereo not shown) [Example 136, 6-Fluoro-2-methyl-2H-1,4-benzothiazin-3-one-4-acetic acid]
80	CC1Sc2ccc(F)cc2N(CC(=O)O)C1=S (stereo not shown) [Example 137, 6-Fluoro-2-methyl-2H-1,4-benzothiazine-3-thione-4-acetic acid]
16	CC1(c2ccccn2)Sc2ccccc2N(CC(=O)O)C1=O (stereo not shown) [Example 151, 2-Methyl-2-(pyridin-2'-yl)-2H-1,4-benzothiazin-3-one-4-acetic acid]
54	O=C(O)CN1C(=S)COc2ccc(F)cc21 [Example 152, 6-Fluoro-2H-1,4-benzoxazine-3-thione-4-acetic acid]
56	O=C(O)CN1C(=S)CCc2cc(Cl)ccc21 [Example 154, 6-Chloro-3,4-dihydroquinoline-2-thione-1-acetic acid]

same assay, conditions: concentration 10^-8 mol/liter; read-out: Inhibition relative to the control activity, %

inhibition at 0.01 µM [%]	SMILES
4	O=C(O)CN1C(=O)CSc2ncccc21 [Example 110, Pyrido[2,3-b]thiazin-2(3H)-one-1-acetic acid]
5	O=C(O)CN1C(=S)CSc2cc(F)ccc21 [Example 117, 7-Fluoro-2H-1,4-benzothiazine-3-thione-4-acetic acid]
22	O=C(O)CN1C(=S)CSc2ccc(F)cc21 [Example 119, 6-Fluoro-2H-1,4-benzothiazine-3-thione-4-acetic acid]
28	O=C(O)CN1C(=S)CSc2cc(Cl)ccc21 [Example 127, 7-Chloro-2H-1,4-benzothiazine-3-thione-4-acetic acid]
5	O=C(O)CN1C(=S)CSc2cc(Cl)c(C(F)(F)F)cc21 [Example 129, 6-Trifluoromethyl-7-chloro-2H-1,4-benzothiazine-3-thione-4-acetic acid]
17	O=C(O)CN1C(=S)C(c2ccccc2)Sc2ccccc21 (stereo not shown) [Example 130, 2-Phenyl-2H-1,4-benzothiazine-3-thione-4-acetic acid]
16	CC1Sc2ccccc2N(CC(=O)O)C1=S (stereo not shown) [Example 132, 2-Methyl-2H-1,4-benzothiazine-3-thione-4-acetic acid]
18	O=C(O)CN1C(=S)CSc2ccccc21 [Example 133, 2H-1,4-Benzothiazine-3-thione-4-acetic acid]
11	CC1Sc2ccc(F)cc2N(CC(=O)O)C1=O (stereo not shown) [Example 136, 6-Fluoro-2-methyl-2H-1,4-benzothiazin-3-one-4-acetic acid]
13	CC1Sc2ccc(F)cc2N(CC(=O)O)C1=S (stereo not shown) [Example 137, 6-Fluoro-2-methyl-2H-1,4-benzothiazine-3-thione-4-acetic acid]
29	O=C(O)CN1C(=S)CCc2cc(Cl)ccc21 [Example 154, 6-Chloro-3,4-dihydroquinoline-2-thione-1-acetic acid]

same assay, conditions: concentration 10^-9 mol/liter; read-out: Inhibition relative to the control activity, %

inhibition at 0.001 µM [%]	SMILES
9	O=C(O)CN1C(=O)CSc2ncccc21 [Example 110, Pyrido[2,3-b]thiazin-2(3H)-one-1-acetic acid]

same assay, conditions: n = average of 3 determinations (Example 132: average of 2 determinations)

IC50 [nM]	SMILES
82 ± 1	O=C(O)CN1C(=S)CSc2cc(F)ccc21 [Example 117, 7-Fluoro-2H-1,4-benzothiazine-3-thione-4-acetic acid]
46 ± 2	O=C(O)CN1C(=S)CSc2ccc(F)cc21 [Example 119, 6-Fluoro-2H-1,4-benzothiazine-3-thione-4-acetic acid]
42 ± 13	CC1Sc2ccccc2N(CC(=O)O)C1=S (stereo not shown) [Example 132, 2-Methyl-2H-1,4-benzothiazine-3-thione-4-acetic acid]
54 ± 5	O=C(O)CN1C(=S)CSc2ccccc21 [Example 133, 2H-1,4-Benzothiazine-3-thione-4-acetic acid]
86 ± 4	O=C(O)CN1C(=S)COc2ccc(F)cc21 [Example 152, 6-Fluoro-2H-1,4-benzoxazine-3-thione-4-acetic acid]
91 ± 15	O=C(O)CN1C(=S)CCc2cc(Cl)ccc21 [Example 154, 6-Chloro-3,4-dihydroquinoline-2-thione-1-acetic acid]
